Our source for the IC50 and EC50 values is patent publication US11760764B2, “Methods and compositions for targeting PD-L1” (Aligos Therapeutics, Inc., priority 2020, dated 2023).

A word on the EC50: it is the concentration that produces a half-maximal response. Lower therefore signals higher potency in that assay.

Where only a bound is given, the exact number is not on record here.

T1 sequence (Q9NZQ7 19-290): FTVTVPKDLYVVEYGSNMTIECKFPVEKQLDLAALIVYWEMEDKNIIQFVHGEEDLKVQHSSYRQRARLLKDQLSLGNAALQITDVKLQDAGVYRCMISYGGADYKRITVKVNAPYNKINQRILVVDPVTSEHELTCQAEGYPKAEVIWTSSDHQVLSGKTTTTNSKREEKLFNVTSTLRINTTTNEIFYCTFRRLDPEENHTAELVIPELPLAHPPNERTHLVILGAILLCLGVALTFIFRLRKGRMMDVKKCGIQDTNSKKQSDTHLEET
Sequence of PD-1/PD-L1 interaction (PDL1-6×His protein, PD1-Fc-Avi-Biotin protein) (Q9NZQ7 19-238 limits assumed): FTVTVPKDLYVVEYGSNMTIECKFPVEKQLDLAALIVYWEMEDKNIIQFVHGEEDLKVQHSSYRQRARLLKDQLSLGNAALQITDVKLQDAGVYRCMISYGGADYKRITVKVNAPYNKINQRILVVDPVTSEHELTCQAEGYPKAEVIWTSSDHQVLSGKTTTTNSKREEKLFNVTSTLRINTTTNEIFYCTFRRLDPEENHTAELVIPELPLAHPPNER

One test addresses PD-1/PD-L1 interaction (PDL1-6×His protein, PD1-Fc-Avi-Biotin protein) (Homo sapiens, UniProt Q9NZQ7). The experiment in a line: PDL1/PD1 Binding Assay. The note with it: Table C; 0.3 nM PDL1, 2.5 nM PD1; read-out: PD-1/PD-L1 PPI IC50. As to the method: Compounds to be tested were serially diluted in DMSO, and further diluted in assay buffer (25 mM Hepes pH 7.4, 150 mM NaCl, 0.005% Tween 20, BSA 0.01%). Diluted compounds were added to the wells with final concentration of DMSO at 1%. PDL1-6×His protein was added to the wells, mixed well with compound. The plates were incubated for 30 min at room temperature. PD1-Fc-Avi-Biotin protein was added to the wells. […] After a binding time of 30 min at room temperature, Anti-6×His Acceptor beads (final concentration 20 ug/ml) were added to the wells, and the incubation continued for 1 h. Streptavidin Donor beads (final concentration 20 ug/mL) were added at reduced light. The plates were sealed with foil and incubated in the dark for additional 1 h or overnight before reading on an Envision reader. The IC50s were determined by fitting the curves using a four-parameter equation in Graphpad Prism 8.
With `CC(=O)N1CC(N2CCOc3nc(-c4cccc(-c5cccc(-c6ccc7c(n6)OCCN(C6CN(C(C)=O)C6)C7)c5Cl)c4Cl)ccc3C2)C1` [Compound I-1], the IC50 was > 10 µM. Turning to `O=C(O)C[C@H](O)CN1CCc2nc(-c3cccc(-c4cccc(-c5ccc6c(n5)CCN(C[C@@H](O)CC(=O)O)C6)c4Cl)c3Cl)ccc2C1` [Compound C-3], the IC50 is 0.1 to 1 µM. Turning to `O=C1CC[C@@H](CNC2Cc3ccc(-c4cccc(-c5cccc(-c6ccc7c(c6)CC(NC[C@@H]6CCC(=O)N6)C7)c5Cl)c4Cl)cc3C2)N1` (stereo partly shown) [Compound A-6], the IC50 was ≤ 0.01 µM.

For `N[C@@H](CC(=O)O)C(=O)N1CCc2ccc(-c3cccc(-c4cccc(-c5ccc6c(c5)CN(C(=O)[C@@H](N)CC(=O)O)CC6)c4Cl)c3Cl)cc2C1` [Compound J-1], the IC50 was 0.01 to 0.1 µM.

For the compound `Clc1c(-c2ccc3c(c2)CCNC3)cccc1-c1cccc(-c2ccc3c(c2)CCNC3)c1Cl` [Compound B-1], the IC50 is ≤ 0.01 µM.

In the case of `O=C(O)CN1CCC12CCc1cc(-c3cccc(-c4cccc(-c5ccc6c(c5)CCC5(CCN5CC(=O)O)C6)c4Cl)c3Cl)ccc1C2` (stereo not shown) [Compound H-3], the IC50 fell in the range of 0.1 to 1 µM. Turning to `O=C(O)CN1CCc2cc(-c3cccc(-c4cccc(-c5ccc6c(c5)CCN(CC(=O)O)C6)c4Cl)c3Cl)ccc2C1` [Compound H-2], the IC50 was ≤ 0.01 µM. Same read-out and setting: under `Cc1c(-c2cccc(-c3cccc(-c4ccc5c(c4C)CCNC5)c3Cl)c2Cl)ccc2c1CCNC2` [Compound B-14] stands 0.1 to 1 µM; under `O=C(O)C[C@H](O)CN1CCOc2nc(-c3cccc(-c4cccc(-c5ccc6c(n5)OCCN(C[C@@H](O)CC(=O)O)C6)c4Cl)c3Cl)ccc2C1` [Compound C-5], 1 to 10 µM. Turning to `Cc1cc2c(cc1-c1cccc(-c3cccc(-c4cc5c(cc4C)CNCC5)c3Cl)c1Cl)CCNC2` [Compound B-16], the IC50 is 0.1 to 1 µM. Turning to `Clc1c(-c2ccc3c(c2)CC(N2CCOCC2)C3)cccc1-c1cccc(-c2ccc3c(c2)CC(N2CCOCC2)C3)c1Cl` (stereo not shown) [Compound A-8], the IC50 was 0.1 to 1 µM. The same measure, in the same setting: for `CC1Cc2cc(-c3cccc(-c4cccc(-c5ccc6c(c5)CC(C)N(C[C@@H](O)CC(=O)O)C6)c4Cl)c3Cl)ccc2CN1C[C@@H](O)CC(=O)O` (stereo partly shown) [Compound C-9] the value was ≤ 0.01 µM; for `CC(=O)NCCNC1CCc2cc(-c3cccc(-c4cccc(-c5ccc6c(c5)CCC6NCCNC(C)=O)c4Cl)c3Cl)ccc21` (stereo not shown) [Compound A-3], 0.01 to 0.1 µM. Turning to `CC1(C)CN(C[C@@H](O)CC(=O)O)Cc2ccc(-c3cccc(-c4cccc(-c5ccc6c(c5)C(C)(C)CN(C[C@@H](O)CC(=O)O)C6)c4Cl)c3Cl)cc21` [Compound C-7], the IC50 was 0.1 to 1 µM.

Turning to `Cc1c(-c2cccc(-c3cccc(-c4ccc5c(c4C)CNCC5)c3Cl)c2Cl)ccc2c1CNCC2` [Compound B-15], the IC50 was in the range of 1 to 10 µM.

As for `O=C(O)CNC1CCc2cc(-c3cccc(-c4cccc(-c5ccc6c(c5)CCC6NCC(=O)O)c4Cl)c3Cl)ccc21` (stereo not shown) [Compound A-1], the IC50 is ≤ 0.01 µM.

`CCOC(=O)CN[C@H]1CCc2cc(-c3cccc(-c4cccc(-c5ccc6c(c5)CC[C@@H]6NCC(=O)OCC)c4Cl)c3Cl)ccc21` [Compound F-1]: the IC50 was in the range of 0.1 to 1 µM. In the case of `O=C(O)CN1CCc2ccc(-c3cccc(-c4cccc(-c5ccc6c(c5)CN(CC(=O)O)CC6)c4Cl)c3Cl)cc2C1` [Compound H-1], the IC50 was ≤ 0.01 µM. Still for that read-out and setting: for `O=C(O)CNC1Cc2ccc(-c3cccc(-c4cccc(-c5ccc6c(c5)CC(NCC(=O)O)C6)c4Cl)c3Cl)cc2C1` (stereo not shown) [Compound A-5] the value was ≤ 0.01 µM; for `N[C@@H]1CCc2cc(-c3cccc(-c4cccc(-c5ccc6c(c5)CC[C@H]6N)c4Cl)c3Cl)ccc21` [Compound B-8], 0.1 to 1 µM. The same measure, in the same setting: under `Clc1c(-c2cc3c(cn2)CNCC3)cccc1-c1cccc(-c2cc3c(cn2)CNCC3)c1Cl` [Compound B-4] stands 0.01 to 0.1 µM; under `CC1Cc2cc(-c3cccc(-c4cccc(-c5ccc6c(c5)CC(C)NC6)c4Cl)c3Cl)ccc2CN1` (stereo not shown) [Compound B-13], 0.01 to 0.1 µM; under `N[C@H]1CCc2cc(-c3cccc(-c4cccc(-c5ccc6c(c5)CC[C@@H]6N)c4Cl)c3Cl)ccc21` [Compound B-7], 0.1 to 1 µM. Same read-out and setting: for `O=C(O)C[C@H](O)CN1Cc2ccc(-c3cccc(-c4cccc(-c5ccc6c(c5)CN(C[C@@H](O)CC(=O)O)C6)c4Cl)c3Cl)cc2C1` [Compound C-1] the value was ≤ 0.01 µM; for `Clc1c(-c2ccc3c(c2)CNC3)cccc1-c1cccc(-c2ccc3c(c2)CNC3)c1Cl` [Compound B-2], 0.01 to 0.1 µM; for `O=C(O)C[C@H](O)CN1CCc2cc(-c3cccc(-c4cccc(-c5ccc6c(c5)CCN(C[C@@H](O)CC(=O)O)C6)c4Cl)c3Cl)ccc2C1` [Compound C-2], ≤ 0.01 µM. `O=C1CC[C@@H](CNC2Cc3ccc(-c4cccc(-c5cccc(-c6ccc7c(c6)CC(O)C7)c5Cl)c4Cl)cc3C2)N1` (stereo partly shown) [Compound A-7]: the IC50 fell in the range of 0.1 to 1 µM.

`Fc1cc(-c2cccc(-c3cccc(-c4cc(F)c5c(c4)CCNC5)c3Cl)c2Cl)cc2c1CNCC2` [Compound B-10]: the IC50 lay within 0.01 to 0.1 µM. As to `CC1(C)CNCc2ccc(-c3cccc(-c4cccc(-c5ccc6c(c5)C(C)(C)CNC6)c4Cl)c3Cl)cc21` [Compound B-9], the IC50 was in the range of 1 to 10 µM. Same read-out and setting: under `O=C(O)C[C@H](O)CN1CCc2cc(-c3cccc(-c4cccc(-c5cc(F)c6c(c5)CCN(C[C@@H](O)CC(=O)O)C6)c4Cl)c3Cl)cc(F)c2C1` [Compound C-8] stands ≤ 0.01 µM; under `CC(=O)NCCNC1Cc2ccc(-c3cccc(-c4cccc(-c5ccc6c(c5)CC(NCCNC(C)=O)C6)c4Cl)c3Cl)cc2C1` (stereo not shown) [Compound A-4], 0.01 to 0.1 µM.

Turning to `COc1cc(-c2cccc(-c3cccc(-c4cc5c(c(OC)c4)CNCC5)c3Cl)c2Cl)cc2c1CNCC2` [Compound B-17], the IC50 lay in the range of 0.01 to 0.1 µM.

As for `O=C(O)CN1CC2(C1)OCc1cc(-c3cccc(-c4cccc(-c5ccc6c(c5)COC65CN(CC(=O)O)C5)c4Cl)c3Cl)ccc12` [Compound H-4], the IC50 is 0.01 to 0.1 µM. On the same count and under the same terms, under `Clc1c(-c2ccc3c(c2)COC32CNC2)cccc1-c1cccc(-c2ccc3c(c2)COC32CNC2)c1Cl` [Compound B-12] stands 1 to 10 µM; under `Clc1c(-c2ccc3c(n2)OCCNC3)cccc1-c1cccc(-c2ccc3c(n2)OCCNC3)c1Cl` [Compound B-5], 0.1 to 1 µM; under `Clc1c(-c2ccc3c(n2)CCNC3)cccc1-c1cccc(-c2ccc3c(n2)CCNC3)c1Cl` [Compound B-3], 0.01 to 0.1 µM. `O=C(O)C[C@H](O)CN1CCc2ccc(-c3cccc(-c4cccc(-c5ccc6c(c5)CN(C[C@@H](O)CC(=O)O)CC6)c4Cl)c3Cl)cc2C1` [Compound C-6]: the IC50 is ≤ 0.01 µM. Still for that read-out and setting: under `O=C(O)C[C@H](O)CN1CCc2cc(-c3cccc(-c4cccc(-c5cc6c(cn5)CN(C[C@@H](O)CC(=O)O)CC6)c4Cl)c3Cl)ncc2C1` [Compound C-4] stands 0.01 to 0.1 µM; under `Clc1c(-c2ccc3c(c2)CCNC3)cccc1-c1cccc(-c2ccc3c(c2)CCN(c2ncccn2)C3)c1Cl` [Compound K-1], 1 to 10 µM.

A further test has as its target T1, PD-1/PD-L1 interaction (Jurkat cells overexpressing PD-1 co-cultured with PD-L1 expressing CHO cells) (Homo sapiens, UniProt Q9NZQ7).
T1 construct: expressed in transfected cells; Jurkat cells (PD-1 and NF-AT luciferase construct)
The experiment in a line: PD-1/PD-L1 NFAT Reporter Assay. Format: cell-based. The settings on record: Table C-1; Jurkat/CHO co-culture, 6 hrs at 37° C., luciferase activity. The protocol: Blocking the PD-1/PD-L1 interaction will release the inhibitory signal and results in TCR signaling and NFAT-mediated luciferase activity.
CHO cells expressing surface-bound anti-CD3 antibodies and PD-L1 were first seeded overnight and treated with the compounds. Jurkat cells overexpressing PD-1 and a luciferase construct under NF-AT promoter were then immediately seeded on the monolayer of CHO cells. The co-culture was then incubated for 6 hrs at 37° C. Luciferase activity was assessed by adding the ONE-Glo reagent and measuring luminescence with a plate reader. EC50s values were determined from the fit of the dose-response curves
(In general: A reporter such as luciferase makes a cellular process visible.)
For `COc1cc(-c2cccc(-c3cccc(-c4cc5c(c(OC)c4)[C@H](NC[C@@H]4CCC(=O)N4)CC5)c3Cl)c2Cl)cc2c1[C@H](NC[C@@H]1CCC(=O)N1)CC2` (single isomer, unassigned) [Compound L-1], the half-maximal effective concentration (EC50) was 0.01 to 0.1 µM. With `COc1nc(-c2cccc(-c3cccc(-c4cc5c(c(OC)n4)[C@@H](NC[C@@H]4CCC(=O)N4)CC5)c3Cl)c2Cl)cc2c1[C@@H](NC[C@@H]1CCC(=O)N1)CC2` [Compound L-3], the EC50 was ≤ 0.01 µM. In turn, `COCCN1CCc2c(cc(-c3cccc(-c4cccc(-c5cc6c(c(OC)c5)[C@@H](N5CC(C(=O)O)C5)CC6)c4Cl)c3Cl)nc2OC)C1` [Compound O-2B] had an EC50 of 0.01 to 0.1 µM. Regarding `CCOC(=O)C1CN([C@H]2CCc3cc(-c4cccc(-c5cccc(-c6cc7c(c(OC)c6)[C@H](NC[C@@H]6CCC(=O)N6)CC7)c5Cl)c4Cl)cc(OC)c32)C1` (single isomer, unassigned) [Compound N-3A], the EC50 was 0.01 to 0.1 µM. In the case of `COc1cc(-c2cccc(-c3cccc(-c4cc5c(c(OC)c4)[C@@H](N4CC(C(=O)O)C4)CC5)c3Cl)c2Cl)cc2c1[C@H](NC[C@@H]1CCC(=O)N1)CC2` (single isomer, unassigned) [Compound N-3B], the concentration giving a half-maximal response (EC50) is 0.01 to 0.1 µM.

For the compound `COc1cc(-c2cccc(-c3cccc(-c4cc5c(c(OC)c4)[C@@H](NC[C@@H]4CCC(=O)N4)CC5)c3Cl)c2Cl)cc2c1[C@@H](NC[C@@H]1CCC(=O)N1)CC2` (single isomer, unassigned) [Compound L-2], the half-maximal effective concentration (EC50) was > 10 µM. Still for that read-out and setting: under `COc1nc(-c2cccc(-c3cccc(-c4cc5c(c(OC)n4)[C@@H](N4CC(C(=O)O)C4)CC5)c3Cl)c2Cl)cc2c1[C@@H](NC[C@@H]1CCC(=O)N1)CC2` (single isomer, unassigned) [Compound N-1B] stands ≤ 0.01 µM.
